Earlier results on one compound are cited in patent US20090181905A1, “CRYSTALLINE FORM OF 1' -(1-METHYLETHYL)-4' -[(2-FLUORO-4-METHOXYPHENYL)METHYL]-5' -METHYL-1H-PYRAZOL-3' -O-BETA-D-GLUCOPYRANOSIDE, A METHOD FOR ITS PREPARATION AND THE USE THEREOF FOR PREPARING MEDICAMENTS” (BOEHRINGER INGELHEIM INTERNATIONAL GMBH, priority 2006, published 2009).

This data set concerns HbA1c. Conditions: metformin on its own, in the diabetic.

Regarding `CN(C)C(=N)N=C(N)N` [metformin], the “average improvement in the HbA1c value” is 1.0-1.5%.
